From patent US12521415B2, “Accelerating repair of mucosal injury using gold(III) compounds” (University of Kentucky Research Foundation, priority 2020, dated 2026)

Assays:
[1] = test system: normal colonocytes (NCM460); assay: Mitochondrial uptake of AuPhos by gold content (graphite furnace atomic absorption spectroscopy) in NCM460; assay type: cell-based, human; conditions: normal colon epithelial cells (NCM460)
Text: (§1) FIGS. 8A-8J present properties of AuPhos. FIG. 8A includes a chemical structure of AuPhos. FIG. 8B includes extrapolated AuPhos-induced OCR (complex I) in liver mitochondria. […] FIG. 8E provides weight change in AuPhos-treated mice over time. FIG. 8F presents stability of AuPhos in PBS and DMEM. FIG. 8G presents stability of AuPhos in PBS and DMEM. FIG. 8H includes an AuPhos-induced Heat map of DEG (left Panel), obtained using log 2(Fold Change) and p-Value <0.00001 thresholds in MDA-MB-231(107) cells (n=2), and the top six hits of KEGG analysis (right panel). FIG. 8I presents biodistribution and pharmacokinetics of AuPhos in different tissues; Colon, Small bowel, Lung, Kidney, Spleen, Liver, Heart and Blood after single dose (oral, 25 mg/kg) administration of AuPhos at 6 h, 12 h and 24 h. FIG. 8J presents biodistribution and pharmacokinetics of AuPhos in different tissues stool after single dose (oral, 25 mg/kg) administration of AuPhos at 6 h, 12 h and 24 h.
FIGS. 16A-16E illustrate the pharmacokinetics and effects of AuPhos on mitochondrial bioenergetics. FIG. 16A. Biodistribution and pharmacokinetics of AuPhos in different tissues; Colon, Small bowel, Spleen, Liver after a single intragastric (i.g.) gavage (25 mg/kg) with measurements of AuPhos tissue levels (graphite furnace atomic absorption spectroscopy) at times indicated. FIG. 16B. […]

[2] = test system: breast cancer (MDA-MB-231); assay: Mitochondrial uptake of AuPhos by gold content (graphite furnace atomic absorption spectroscopy) in MDA-MB-231; assay type: cell-based; conditions: cancerous epithelial cells (MDA-MB-231)
Text: as §1
Changing the geometry and stabilizing ligands of gold compounds, such as the use of bidentate frameworks, promote different mitochondrial effects.

[3] = Stability of AuPhos in PBS and DMEM; assay type: physicochemical
Text: as §1
This observation was mitochondrial complex I-driven when different substrates, i.e. pyruvate and succinate, were used to measure the OCR. Transcriptomics was used to study global changes in mRNA in response to a 12 h exposure of AuPhos to MDA-MB-231 cells (FIG. 8H).

serum IL-6 = assay: Anti-CD3 mAb-induced serum IL-6 in control and AuPhos-treated mice; assay type: in vivo, mouse; conditions: 25 mg/kg i.g. every 3d x2; anti-CD3 mAb injected
Method: FIG. 12A RT-qPCR analysis of cytokines and chemokine genes in AuPhos vs. controls at 9 and 13 days after DSS initiation. FIG. 12B RT-qPCR analysis of cytokines and chemokine genes in AuPhos vs. controls at 9 and 13 days after DSS initiation. FIG. 12C Quantitative RT-PCR analysis of inflammasome markers in D13 DSS mice. Statistical significance was determined using multiple t-test with Holm-Sidak's multiple method. FIG. 12D Serum IL-6 in AuPhos treated (n=4) and control mice, with or without anti-CD3 antibody. ★<0.05; ★★<0.01.
Findings in FIG. 9A-9D indicate that AuPhos attenuates tissue inflammation and enhances mucosal healing in DSS colitis mice. To interrogate the effects of AuPhos on Th1 and Treg cytokine production as well as chemokine and inflammasome mediators, mRNA from mice at time points indicated (as in FIG. 9A-9D). […] To test the question of whether AuPhos affected leukocytes directly, control and AuPhos-treated (25 mg/kg i.g. dosed every 3d×2) were injected with anti-CD3 mAb (antiTCR mAb). It is known that CD3 mAb induces a cytokine storm in the periphery and intestine.

Compound: [Cl][Au]1([c]2ccccc2Cc2ccccn2)[P](c2ccccc2)(c2ccccc2)c2ccccc2[P]1(c1ccccc1)c1ccccc1 [AuPhos]
- mitochondrial localization (gold content) [1]: localizes in the mitochondria
- mitochondrial localization (gold content) [2]: localizes in the mitochondria
- solution stability [3]: excellent solution stability
- anti-CD3 induced increases in serum IL-6 (serum IL-6): did not affect
